Measured values from patent publication US20240309014A1, “MACROCYCLIC COMPOUNDS AND USES THEREOF” (President and Fellows of Harvard College, priority 2017, published 2024).

What was measured:
B-16 melanoma cells = conditions: among natural Halichondrin compounds; cited from earlier work
[1] = system: KPL-4 subcutaneous xenograft; experiment: KPL-4 subcutaneous xenograft model in combination with trastuzumab; type: in vivo, nude mice
Method: A human HER-2 positive breast cancer cell line KPL-4, which had been cultured in an RPMI-1640 medium containing 10% FBS, and penicillin and streptomycin, was adjusted to a concentration of 1×10^8 cells/mL with Hank's Balanced Salt Solution to prepare a cell suspension. The cell suspension was inoculated in a volume of 100 μL into a subcutaneous part of a right flank of nude mice, 7 weeks of ages (CAnN.Cg-Foxnlnu/CrlCrlj, female, Charles River Laboratories Japan, Inc.). Sixteen days after the cell inoculation, the shortest diameter and the longest diameter of a tumor in each mouse were measured by using an electronic digital caliper (Digimatic™ caliper, Mitutoyo Corporation), so as to calculate the volume of the tumor in accordance with the following calculation formulae: […]
(§1) On the basis of the volumes of tumors obtained on the first day of administration, the mice were grouped such that averages of the tumor volumes were substantially equal among the groups. The experiment was conducted on groups each consisting of 6 mice. Each test compound was dissolved in DMSO and a solution was stored at the freezer before use. Immediately before the administration, the stock solution was diluted in saline.

[2] = system: human uterine sarcoma cell line MES-SA xenograft; experiment: MES-SA soft tissue sarcoma xenograft as monotherapy (FIG. 17); type: in vivo, nude mice; conditions: 180 μg/kg i.v. Day 1 and Day 8
Method: A human uterine sarcoma cell line MES-SA, which had been cultured in an RPMI-1640 containing 10% FBS, and penicillin-streptomycin, was adjusted to a concentration of 2×10^8 cells/mL with Hanks' Balanced Salt Solution to prepare a cell suspension, and the suspension was mixed with Geltrex® (Thermo Fisher Scientific Inc., #A1413202) in a ratio of 1:1 to prepare a cell suspension in a concentration of 1×10^8 cells/mL. The cell suspension was inoculated in a volume of 100 μL into a subcutaneous part of a right flank of nude mice, 6 weeks of ages (CAnN.Cg-Foxnlnu/CrlCrlj, female, Charles River Laboratories Japan Inc.). Six days after cell inoculation (Day 1), the shortest diameter and the longest diameter of a tumor in each mouse were measured by using an electronic digital caliper (Digimatic™ caliper, Mitutoyo Corporation), so as to calculate the volume of the tumor in accordance with the following calculation formulae: […]
as §1, with “on Day 1,” for “on the first day of administration,”, “mice. The” for “mice. Each”, “stored in” for “stored at”, “diluted with” for “diluted in”, “saline. […]” for “saline.”

[3] = system: human fibrosarcoma cell line HT-1080 xenograft; experiment: HT-1080 xenograft as monotherapy (FIG. 17); type: in vivo, athymic mice; conditions: 180 μg/kg i.v. Day 1 and Day 8
Method: A human fibrosarcoma cell line HT-1080, which had been cultured in an E-MEM containing 10% FBS, NEAA and antibiotics was adjusted to a concentration of 3×10^7 cells/mL with medium to prepare a cell suspension. The cell suspension was inoculated in a volume of 100 μL into a subcutaneous part of a right flank of athymic mice (CAnN.Cg-Foxnlnu/CrlCrlj, female, 6 weeks old, Charles River Japan Inc.). Six days after cell inoculation (Day 1), the length and the width of a tumor in each mouse were measured by using an electronic digital caliper (Mitutoyo Corporation), so as to calculate the volume of the tumor in accordance with the following calculation formula: […]
On the basis of TV, the mice were randomly grouped (Day 1). Each group was consisted in six mice. Compound (1) was dissolved in DMSO and a solution was stored in the freezer before use. Compound (1) (180 μg/kg) was diluted with saline and intravenously injected on Day 1 and Day 8.

[4] = system: human bladder carcinoma cell line RT112/84; experiment: Bladder carcinoma cell line growth inhibition assay, RT112/84; type: cell-based; conditions: RT112/84, 72 h, 3 days incubation, CellTiter-Glo 2.0
Method: In this assay, the growth inhibitory activity of Compound (1) in human bladder carcinoma cell lines RT4, RT112/84, and UM-UC-3 was measured. RT4 and RT112/84 cells were maintained in a RPMI-1640 (FUJIFILM Wako Pure Chemical Corporation, 189-02025) medium containing 10% fetal bovine serum (FBS: SIGMA Life Science, 172012-500ML), and penicillin and streptomycin (FUJIFILM Wako Pure Chemical Corporation, 168-23191) in a 5% CO2 incubator (37° C.). UM-UC-3 cells were maintained in an E-MEM (FUJIFILM Wako Pure Chemical Corporation, 051-07615) medium containing 10% FBS, 1 mM Sodium Pyruvate (FUJIFILM Wako Pure Chemical Corporation, 190-14881), and penicillin and streptomycin in a 5% CO2 incubator (37° C.). To each well of a 96 well plate (Coming, 3904), 90 μL of each cell suspension adjusted to a concentration of 5.55×10^3 cells/mL (RT4 or UM-UC-3) or 3.33×10^4 cells/mL (RT112/84) with the culture medium was added, and the cells were incubated overnight in a 5% CO2 incubator (37° C.). On the next day, 10 μL of Compound (1) in three-fold dilution series suspended in the culture medium was added to each well, and the resultant was incubated for 3 days in a 5% CO2incubator (37° C.). Then, cell viability was determined by CellTiter-Glo® 2.0 Assay (Promega Corporation, G9243) with ARVO-X4 Multimode Plate Reader (Perkin-Elmer, Wellesley, MA). […]

SMILES | anti-tumor activities against B-16 melanoma cells in vitro (B-16 melanoma cells) | Tumor Regression (%) ([1]; 0.09 mg/kg i.v. + trastuzumab 10 mg/kg) | Tumor Regression (%) ([1]; 0.09 mg/kg i.v., without trastuzumab) | Tumor Regression (%) ([1]; 0.18 mg/kg i.v. + trastuzumab 10 mg/kg) | Tumor Regression (%) ([1]; 0.18 mg/kg i.v., without trastuzumab) | antitumor activity [2] | antitumor activity [3] | IC50 [4] [nM]
C=C1C[C@@H]2CC[C@@]34C[C@H]5O[C@H]6[C@@H](O3)[C@H]3O[C@H](CC[C@@H]3O[C@H]6[C@H]5O4)CC(=O)O[C@@H]3[C@@H](C)[C@@H]4O[C@@H]5C[C@]6(C[C@@H]7O[C@]8(C[C@H](C)[C@@H]9O[C@H]([C@@H](O)C[C@@H](O)CO)C[C@@H]9O8)C[C@H](C)[C@@H]7O6)O[C@@H]5C[C@@H]4O[C@H]3C[C@H]3O[C@@H](CC[C@@H]1O2)C[C@@H](C)C3=C [Halichondrin B, reference compound] | strongest anti-tumor activities | – | – | – | – | – | – | –
C=C1C[C@@H]2CC[C@@]34C[C@H]5O[C@H]6[C@@H](O3)[C@H]3O[C@H](CC[C@@H]3O[C@H]6C5O4)CC(=O)O[C@@H]3[C@@H](C)[C@@H]4O[C@@H]5C[C@]6(C[C@@H]7O[C@]8(C[C@H](C)[C@@H]9O[C@H](CN)[C@H](O)C[C@@H]9O8)C[C@H](C)[C@@H]7O6)O[C@@H]5C[C@@H]4O[C@H]3C[C@H]3O[C@@H](CC[C@@H]1O2)C[C@@H](C)C3=C (stereo in doubt) [Compound (1)] | – | 83 | 43 | 100 | 87 | tumor growth delay | tumor regression | 0.0497
